Consider 21 compounds from patent publication US10618903B2, “Heteroaryl substituted aminopyridine compounds” (BRISTOL-MYERS SQUIBB COMPANY, priority 2015, dated 2020).

For data set [1], the system named is IL-6 levels in human whole blood stimulated with a TLR2 agonist. Description: IRAK4 Whole Blood Assay (lipoteichoic acid/TLR2-stimulated IL-6). The class given is cell-based. Conditions: Homo sapiens, lipoteichoic acid 10 μg/mL, IL-6 readout. A digest of the protocol:
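IL-6 was quantified by cytometric bead assay in supernatants of human blood (ACD-A) stimulated for 5 h with lipoteichoic acid at 10 μg/mL final. Compound exposure preceded stimulation for 60 min at 37 °C, 5% CO2.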

A further data set in a line: Caco Permeability Assay. The class given is in vitro ADME. Conditions: human, Caco-2, Caco-2 cells, 3 μM compound. A general note: Passage across Caco-2 layers is used to estimate intestinal permeability.
The target of a further data set is IRAK4 (Homo sapiens (Human), UniProt Q9NWZ3). The data set can be described thus: IRAK4 Inhibition Assay. The class given is biochemical. Conditions: ATP 500 μM; IRAK4 0.6 nM. In a few lines:
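Readout: electrophoretic (LabChip) separation of fluorescent peptide substrate from phosphorylated product after EDTA quench. Reactions ran 60 min at room temperature with 0.6 nM IRAK4, 1.5 μM peptide and 500 μM ATP; inhibition referenced to no-enzyme (100%) and vehicle (0%) controls.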

Sequence of IRAK4 (Q9NWZ3 whole entry): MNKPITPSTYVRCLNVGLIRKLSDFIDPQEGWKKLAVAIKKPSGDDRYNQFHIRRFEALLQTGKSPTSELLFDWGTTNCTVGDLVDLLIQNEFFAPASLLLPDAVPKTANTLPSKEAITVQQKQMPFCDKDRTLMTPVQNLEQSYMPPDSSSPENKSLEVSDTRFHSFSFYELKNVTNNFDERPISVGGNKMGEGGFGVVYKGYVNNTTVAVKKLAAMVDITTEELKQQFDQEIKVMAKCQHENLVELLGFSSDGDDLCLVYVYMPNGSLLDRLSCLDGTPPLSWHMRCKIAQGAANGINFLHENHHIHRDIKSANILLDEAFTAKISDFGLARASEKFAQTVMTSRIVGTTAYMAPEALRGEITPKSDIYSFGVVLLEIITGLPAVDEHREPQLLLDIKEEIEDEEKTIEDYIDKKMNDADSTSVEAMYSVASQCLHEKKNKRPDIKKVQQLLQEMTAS

For the compound `CC(F)(F)Cn1cc(Nc2cc(-c3cnn4cc(C#N)cnc34)ncc2C(=O)NC[C@@H](F)C(C)(C)O)cn1` [Example 238, (R)-6-(6-cyanopyrazolo[1,5-a]pyrimidin-3-yl)-4-((1-(2,2-difluoropropyl)-1H-pyrazol-4-yl)amino)-N-(2-fluoro-3-hydroxy-3-methylbutyl)nicotinamide], the EC50 (in general, the concentration needed to bring the measured effect to its halfway point) in data set [1] amounted to 0.22 µM. The Papp (in general, a coefficient for how fast a substance crosses the barrier) at 2 h, 3 µM in “Caco Permeability Assay” came out at 2.1 ×10⁻⁶ cm/s. In addition, the IC50 (usually the concentration at which inhibition is half-maximal) at IRAK4 is 0.002 µM.
The matching figures for `CC(F)(F)Cn1cc(Nc2cc(-c3cnn4cc(Cl)cnc34)ncc2C(=O)NC[C@@H](F)C(C)(C)O)cn1` [Example 239, (R)-6-(6-chloropyrazolo[1,5-a]pyrimidin-3-yl)-4-((1-(2,2-difluoropropyl)-1H-pyrazol-4-yl)amino)-N-(2-fluoro-3-hydroxy-3-methylbutyl)nicotinamide]: 0.35 µM, 14.4 ×10⁻⁶ cm/s and 0.001 µM.
For `Cn1cc(Nc2cc(-c3cnn4cc(C#N)cnc34)ncc2C(=O)NC[C@@H](F)C(C)(C)O)cn1` [Example 240, (R)-6-(6-cyanopyrazolo[1,5-a]pyrimidin-3-yl)-N-(2-fluoro-3-hydroxy-3-methylbutyl)-4-((1-methyl-1H-pyrazol-4-yl)amino)nicotinamide], in that order: 0.18 µM, under 1.5 ×10⁻⁶ cm/s and 0.002 µM.
For `COCCn1cc(Nc2cc(-c3cnn4cc(Cl)cnc34)ncc2C(=O)NC[C@@H](F)C(C)(C)O)cn1` [Example 242, (R)-6-(6-chloropyrazolo[1,5-a]pyrimidin-3-yl)-N-(2-fluoro-3-hydroxy-3-methylbutyl)-4-((1-(2-methoxyethyl)-1H-pyrazol-4-yl)amino) nicotinamide], the concentration giving a half-maximal response (EC50) in data set [1] was 0.06 µM. Besides, the apparent permeability coefficient (Papp) at 2 h, 3 µM in the data set “Caco Permeability Assay” was found to be 2.1 ×10⁻⁶ cm/s. Further, the IC50 at IRAK4 came to 0.002 µM.
Turning to `COCCn1cc(Nc2cc(-c3cnn4cc(C#N)cnc34)ncc2C(=O)NC[C@@H](F)C(C)(C)O)cn1` [Example 243, (R)-6-(6-cyanopyrazolo[1,5-a]pyrimidin-3-yl)-N-(2-fluoro-3-hydroxy-3-methylbutyl)-4-((1-(2-methoxyethyl)-1H-pyrazol-4-yl)amino)nicotinamide], in data set [1], the EC50 turned out to be 0.16 µM. Also, in the data set “Caco Permeability Assay”, the Papp at 2 h, 3 µM is under 1.5 ×10⁻⁶ cm/s. Moreover, the IC50 on IRAK4 amounted to 0.003 µM.
In the case of `Cc1cc(Nc2cc(-c3cnn4cc(C#N)cnc34)ncc2C(=O)NC[C@@H](F)C(C)(C)O)n(C)n1` [Example 244, (R)-6-(6-cyanopyrazolo[1,5-a]pyrimidin-3-yl)-4-((1,3-dimethyl-1H-pyrazol-5-yl)amino)-N-(2-fluoro-3-hydroxy-3-methylbutyl)nicotinamide], the EC50 in data set [1] turned out to be 0.38 µM. In addition, the Papp at 2 h, 3 µM in “Caco Permeability Assay” is under 1.5 ×10⁻⁶ cm/s. The IC50 at IRAK4 turned out to be 0.008 µM.
On to `CC(F)(F)Cn1ccc(Nc2cc(-c3cnn4cc(C#N)cnc34)ncc2C(=O)NC[C@@H](F)C(C)(C)O)n1` [Example 245, (R)-6-(6-cyanopyrazolo[1,5-a]pyrimidin-3-yl)-4-((1-(2,2-difluoropropyl)-1H-pyrazol-3-yl)amino)-N-(2-fluoro-3-hydroxy-3-methylbutyl)nicotinamide], for which a half-maximal effect in data set [1] (EC50) was put at 0.41 µM. In addition, the Papp at 2 h, 3 µM in “Caco Permeability Assay” was 1.8 ×10⁻⁶ cm/s. Moreover, the IC50 at IRAK4 is 0.004 µM.
For `CC(C)(O)[C@H](F)CNC(=O)c1cnc(-c2cnn3cc(Cl)cnc23)cc1Nc1cnn(C2CC2)c1` [Example 246, (R)-6-(6-chloropyrazolo[1,5-a]pyrimidin-3-yl)-4-((1-cyclopropyl-1H-pyrazol-4-yl)amino)-N-(2-fluoro-3-hydroxy-3-methylbutyl)nicotinamide], the 50% effective concentration (EC50) in data set [1] came to 0.13 µM. Moreover, the Papp at 2 h, 3 µM in the data set “Caco Permeability Assay” was found to be 4.7 ×10⁻⁶ cm/s. For the same compound, the IC50 on IRAK4 was determined as 0.001 µM.
In the case of `CC(C)Cn1cc(Nc2cc(-c3cnn4cc(Cl)cnc34)ncc2C(=O)NC[C@@H](F)C(C)(C)O)cn1` [Example 247, (R)-6-(6-chloropyrazolo[1,5-a]pyrimidin-3-yl)-N-(2-fluoro-3-hydroxy-3-methylbutyl)-4-((1-isobutyl-1H-pyrazol-4-yl)amino)nicotinamide], the EC50 in data set [1] was 0.36 µM. This compound showed a Papp at 2 h, 3 µM in the data set “Caco Permeability Assay” of 8.1 ×10⁻⁶ cm/s. Further, the IC50 at IRAK4 was found to be 0.002 µM.
In data set [1], `CC(C)(O)[C@H](F)CNC(=O)c1cnc(-c2cnn3cc(C#N)cnc23)cc1Nc1cnn(C2CC2)c1` [Example 248, (R)-6-(6-cyanopyrazolo[1,5-a]pyrimidin-3-yl)-4-((1-cyclopropyl-1H-pyrazol-4-yl)amino)-N-(2-fluoro-3-hydroxy-3-methylbutyl)nicotinamide] returned an EC50 of 0.37 µM. The Papp at 2 h, 3 µM in the data set “Caco Permeability Assay” was under 1.5 ×10⁻⁶ cm/s. On IRAK4, the IC50 came out at 0.002 µM.
In data set [1], `CC(C)(O)[C@H](F)CNC(=O)c1cnc(-c2cnn3cc(C#N)cnc23)cc1Nc1cnn(CC2CC2)c1` [Example 249, (R)-6-(6-cyanopyrazolo[1,5-a]pyrimidin-3-yl)-4-((1-(cyclopropylmethyl)-1H-pyrazol-4-yl)amino)-N-(2-fluoro-3-hydroxy-3-methylbutyl)nicotinamide] had an EC50 of 0.4 µM. Further, in “Caco Permeability Assay”, the apparent permeability (Papp) at 2 h, 3 µM was under 1.5 ×10⁻⁶ cm/s. Moreover, the IC50 on IRAK4 was 0.002 µM.
`CC(C)(O)[C@H](F)CNC(=O)c1cnc(-c2cnn3cc(Cl)cnc23)cc1Nc1cnn(C2CCC2)c1` [Example 250, (R)-6-(6-chloropyrazolo[1,5-a]pyrimidin-3-yl)-4-((1-cyclobutyl-1H-pyrazol-4-yl)amino)-N-(2-fluoro-3-hydroxy-3-methylbutyl)nicotinamide] showed an EC50 in data set [1] of 0.2 µM. In the data set “Caco Permeability Assay”, this compound came in with a Papp at 2 h, 3 µM of 6.6 ×10⁻⁶ cm/s. The IC50 at IRAK4 turned out to be 0.001 µM.
For `CC(C)(O)[C@H](F)CNC(=O)c1cnc(-c2cnn3cc(Cl)cnc23)cc1Nc1cnn(CC2CC2)c1` [Example 251, (R)-6-(6-chloropyrazolo[1,5-a]pyrimidin-3-yl)-4-((1-(cyclopropylmethyl)-1H-pyrazol-4-yl)amino)-N-(2-fluoro-3-hydroxy-3-methylbutyl)nicotinamide], in that order: 0.41 µM, 7.6 ×10⁻⁶ cm/s and 0.001 µM.
In data set [1], `CC(C)(O)CCNC(=O)c1cnc(-c2cnn3cc(Cl)cnc23)cc1Nc1cnn(CC(F)F)c1` [Example 253, 6-(6-chloropyrazolo[1,5-a]pyrimidin-3-yl)-4-((1-(2,2-difluoroethyl)-1H-pyrazol-4-yl)amino)-N-(3-hydroxy-3-methylbutyl)nicotinamide] displayed an EC50 of 0.16 µM. The same compound displayed a Papp at 2 h, 3 µM in “Caco Permeability Assay” of 4.8 ×10⁻⁶ cm/s. For the same compound, the IC50 on IRAK4 was found to be 0.001 µM.
With `CC(C)(F)[C@H](F)CNC(=O)c1cnc(-c2cnc3cc(C#N)cnn23)cc1Nc1cnn(CC(F)F)c1` [Example 258, (R)-6-(7-cyanoimidazo[1,2-b]pyridazin-3-yl)-N-(2,3-difluoro-3-methylbutyl)-4-((1-(2,2-difluoroethyl)-1H-pyrazol-4-yl)amino)nicotinamide], in data set [1], the response was half-maximal at 0.18 µM (EC50). This compound had a Papp at 2 h, 3 µM in the data set “Caco Permeability Assay” of 5.9 ×10⁻⁶ cm/s. Also, at IRAK4, the IC50 was 0.002 µM.
Regarding `CC(C)(O)[C@H](F)CNC(=O)c1cnc(-c2cnc3cc(C#N)cnn23)cc1Nc1cnn(C2CC(F)(F)C2)c1` [Example 259, (R)-6-(7-cyanoimidazo[1,2-b]pyridazin-3-yl)-4-((1-(3,3-difluorocyclobutyl)-1H-pyrazol-4-yl)amino)-N-(2-fluoro-3-hydroxy-3-methylbutyl)nicotinamide], the EC50 in data set [1] is 0.13 µM. This compound gave a Papp at 2 h, 3 µM in “Caco Permeability Assay” of under 1.5 ×10⁻⁶ cm/s. Also, the IC50 on IRAK4 amounted to 0.002 µM.
The matching figures for `CC(C)(O)[C@H](F)CNC(=O)c1cnc(-c2cnc3cc(C#N)cnn23)cc1Nc1cnn(CC(F)F)c1` [Example 260, (R)-6-(7-cyanoimidazo[1,2-b]pyridazin-3-yl)-4-((1-(2,2-difluoroethyl)-1H-pyrazol-4-yl)amino)-N-(2-fluoro-3-hydroxy-3-methylbutyl) nicotinamide]: 0.08 µM, under 1.5 ×10⁻⁶ cm/s and 0.003 µM.
In the case of `CC(C)(O)[C@H](F)CNC(=O)c1cnc(-c2cnc3cc(Cl)cnn23)cc1Nc1cnn(CC(F)F)c1` [Example 262, (R)-6-(7-chloroimidazo[1,2-b]pyridazin-3-yl)-4-((1-(2,2-difluoroethyl)-1H-pyrazol-4-yl)amino)-N-(2-fluoro-3-hydroxy-3-methylbutyl)nicotinamide], a half-maximal effect in data set [1] (EC50) was put at 0.52 µM. This compound returned a Papp at 2 h, 3 µM in the data set “Caco Permeability Assay” of 2.6 ×10⁻⁶ cm/s. Besides, the IC50 on IRAK4 came out at 0.001 µM.
`CC(C)(F)[C@H](F)CNC(=O)c1cnc(-c2cnc3cc(Cl)cnn23)cc1Nc1cnn(CC(F)F)c1` [Example 263, (R)-6-(7-chloroimidazo[1,2-b]pyridazin-3-yl)-N-(2,3-difluoro-3-methylbutyl)-4-((1-(2,2-difluoroethyl)-1H-pyrazol-4-yl)amino)nicotinamide] displayed an EC50 in data set [1] of 0.3 µM. This compound also had a Papp at 2 h, 3 µM in “Caco Permeability Assay” of 21.3 ×10⁻⁶ cm/s. Also, the IC50 on IRAK4 is 0.002 µM.
With `CC(F)(F)Cn1cc(Nc2cc(-c3cnc4cc(C#N)cnn34)ncc2C(=O)NC[C@@H](F)C(C)(C)O)cn1` [Example 265, (R)-6-(7-cyanoimidazo[1,2-b]pyridazin-3-yl)-4-((1-(2,2-difluoropropyl)-1H-pyrazol-4-yl)amino)-N-(2-fluoro-3-hydroxy-3-methylbutyl)nicotinamide], the EC50 in data set [1] was found to be 0.44 µM. Besides, the Papp at 2 h, 3 µM in “Caco Permeability Assay” was under 1.5 ×10⁻⁶ cm/s. At IRAK4, the 50% inhibitory concentration (IC50) was found to be 0.002 µM.
As for `CCn1cc(Nc2cc(-c3cnc4cc(Cl)cnn34)ncc2C(=O)NC[C@@H](F)C(C)(C)O)cn1` [Example 266, (R)-6-(7-chloroimidazo[1,2-b]pyridazin-3-yl)-4-((1-ethyl-1H-pyrazol-4-yl)amino)-N-(2-fluoro-3-hydroxy-3-methylbutyl) nicotinamide], the half-maximal effective concentration (EC50) in data set [1] was found to be 0.57 µM. Besides, the apparent permeability coefficient (Papp) at 2 h, 3 µM in “Caco Permeability Assay” came to 2.9 ×10⁻⁶ cm/s. The IC50 at IRAK4 worked out at 0.003 µM.
